Experimental data taken from PubChem BioAssay AID248 (DTP/NCI, 2004).
Several values for one entry are separate records, joined by “and”; a condition that tells them apart may be missing. Equal values may be shown once. Inconclusive results and toxic doses are left out. No stated cut-off is given here; in the data, active means T/C of 150% or more; inactive means T/C below 125%.

Test system: L1210 leukemia ip in BDF1 mice, survival T/C
Experiment: NCI In Vivo Anticancer Drug Screen. Data for tumor model L1210 Leukemia (intraperitoneal) in B6D2F1 (BDF1) mice
Conditions: endpoint: mean survival time, higher = longer survival
In short: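 Value reflects the ratio of survival in compound-treated mice to survival in vehicle-treated controls, with both groups carrying the same transplanted tumor.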

[1] = dose: 100.0 mg/kg/injection, schedule: Q01DX001 (ip), vehicle: carboxymethylcellulose (CMC)
[2] = dose: 200.0 mg/kg/injection, schedule: Q01DX001 (ip), vehicle: carboxymethylcellulose (CMC)
[3] = dose: 400.0 mg/kg/injection, schedule: Q01DX001 (ip), vehicle: carboxymethylcellulose (CMC)
[4] = dose: 50.0 mg/kg/injection, schedule: Q01DX001 (ip), vehicle: carboxymethylcellulose (CMC)
[5] = dose: 100.0 mg/kg/injection, schedule: Q01DX009 (ip), vehicle: saline with Tween-80
[6] = dose: 200.0 mg/kg/injection, schedule: Q01DX009 (ip), vehicle: saline with Tween-80
[7] = dose: 100.0 mg/kg/injection, schedule: Q01DX001 (ip), vehicle: saline
[8] = dose: 200.0 mg/kg/injection, schedule: Q01DX001 (ip), vehicle: saline
[9] = dose: 400.0 mg/kg/injection, schedule: Q01DX001 (ip), vehicle: saline

Measured: T/C

CC(C)(C)OC(=O)CNC(=O)CCl
inactive: dose: 100.0 mg/kg/injection, schedule: Q04DX003 (ip), vehicle: saline 96 % of control | dose: 200.0 mg/kg/injection, schedule: Q04DX003 (ip), vehicle: saline 95 % of control

O=C(O)COc1ccc(F)cc1Cl
inactive: dose: 100.0 mg/kg/injection, schedule: Q01DX009 (ip), vehicle: Klucel (hydroxypropylcellulose) (HPC) 93 % of control | dose: 100.0 mg/kg/injection, schedule: Q04DX003 (ip), vehicle: Klucel (hydroxypropylcellulose) (HPC) 96 % of control | dose: 200.0 mg/kg/injection, schedule: Q01DX009 (ip), vehicle: Klucel (hydroxypropylcellulose) (HPC) 96 % of control | dose: 200.0 mg/kg/injection, schedule: Q04DX003 (ip), vehicle: Klucel (hydroxypropylcellulose) (HPC) 98 % of control | dose: 400.0 mg/kg/injection, schedule: Q04DX003 (ip), vehicle: Klucel (hydroxypropylcellulose) (HPC) 94 % of control

O=C1c2ccc(Br)cc2-c2cc(Br)c([N+](=O)[O-])cc21
inactive: [1] 98 % of control | [2] 98 % of control | [3] 113 % of control

NC(CSS(=O)(=O)O)=NCc1ccccn1
inactive: dose: 100.0 mg/kg/injection, schedule: Q04DX002 (ip), vehicle: Klucel (hydroxypropylcellulose) (HPC) 95 % of control | dose: 200.0 mg/kg/injection, schedule: Q04DX002 (ip), vehicle: Klucel (hydroxypropylcellulose) (HPC) 101 % of control | dose: 400.0 mg/kg/injection, schedule: Q04DX002 (ip), vehicle: Klucel (hydroxypropylcellulose) (HPC) 98 % of control

CCCCCC#CCCCCl
inactive: [4] 101 % of control | dose: 50.0 mg/kg/injection, schedule: Q01DX009 (ip), vehicle: carboxymethylcellulose (CMC) 95 % of control and 97 % of control | dose: 50.0 mg/kg/injection, schedule: Q04DX003 (ip), vehicle: carboxymethylcellulose (CMC) 98 % of control | [1] 96 % of control | dose: 100.0 mg/kg/injection, schedule: Q01DX009 (ip), vehicle: carboxymethylcellulose (CMC) 93 % of control and 95 % of control | dose: 100.0 mg/kg/injection, schedule: Q04DX002 (ip), vehicle: carboxymethylcellulose (CMC) 95 % of control and 97 % of control | dose: 100.0 mg/kg/injection, schedule: Q04DX003 (ip), vehicle: carboxymethylcellulose (CMC) 102 % of control | [2] 91 % of control | dose: 200.0 mg/kg/injection, schedule: Q01DX009 (ip), vehicle: carboxymethylcellulose (CMC) 95 % of control | dose: 200.0 mg/kg/injection, schedule: Q04DX002 (ip), vehicle: carboxymethylcellulose (CMC) 100 % of control and 107 % of control | dose: 200.0 mg/kg/injection, schedule: Q04DX003 (ip), vehicle: carboxymethylcellulose (CMC) 94 % of control

Clc1ccccc1/C=C/c1ccccn1
inactive: dose: 6.25 mg/kg/injection, schedule: Q04DX002 (ip), vehicle: DMSO 102 % of control | dose: 12.5 mg/kg/injection, schedule: Q04DX002 (ip), vehicle: DMSO 98 % of control | dose: 25.0 mg/kg/injection, schedule: Q04DX002 (ip), vehicle: DMSO 109 % of control | dose: 100.0 mg/kg/injection, schedule: Q04DX002 (ip), vehicle: DMSO 94 % of control

Cc1ccc(O)c(C(=O)C(C)CCCC(C)C)c1 (stereo not given)
inactive: dose: 75.0 mg/kg/injection, schedule: Q01DX009 (ip), vehicle: Klucel (hydroxypropylcellulose) (HPC) 89 % of control | dose: 150.0 mg/kg/injection, schedule: Q01DX009 (ip), vehicle: Klucel (hydroxypropylcellulose) (HPC) 94 % of control | dose: 300.0 mg/kg/injection, schedule: Q01DX009 (ip), vehicle: Klucel (hydroxypropylcellulose) (HPC) 100 % of control

COc1ccc2c(c1)CC(=CO)CC2=O.COc1ccc2c(c1)CC/C(=C/O)C2=O.[Cu]
inactive: [5] 98 % of control | dose: 100.0 mg/kg/injection, schedule: Q04DX003 (ip), vehicle: saline sonified 101 % of control | [6] 110 % of control | dose: 200.0 mg/kg/injection, schedule: Q04DX003 (ip), vehicle: saline sonified 90 % of control | dose: 400.0 mg/kg/injection, schedule: Q04DX003 (ip), vehicle: saline sonified 104 % of control

CCCCCCCCCCCCN1CCC(=O)NC1=O
inactive: [5] 100 % of control | [6] 97 % of control

CCOC(=O)NN(C(=O)OCC)c1c(N(C)NC(C)=O)nc(N)[nH]c1=O
inactive: [7] 96 % of control | [8] 86 % of control | [9] 96 % of control

CCOC(=O)N1C(C(=O)c2ccccc2)N(Cc2ccccc2)C(c2ccccc2)N1C(=O)OCC (stereo not given)
inactive: dose: 50.0 mg/kg/injection, schedule: Q01DX001 (ip), vehicle: saline 105 % of control | [7] 97 % of control | [8] 105 % of control | [9] 100 % of control

O=c1[nH]c2c(Cl)cccc2c2ccccc12
inactive: [1] 100 % of control | [2] 107 % of control | [3] 102 % of control

CCOC(=O)c1[nH]c(=O)nc(N)c1Oc1ccccc1
inactive: dose: 50.0 mg/kg/injection, schedule: Q01DX001 (ip), vehicle: Klucel (hydroxypropylcellulose) (HPC) 98 % of control | dose: 100.0 mg/kg/injection, schedule: Q01DX001 (ip), vehicle: Klucel (hydroxypropylcellulose) (HPC) 92 % of control | dose: 200.0 mg/kg/injection, schedule: Q01DX001 (ip), vehicle: Klucel (hydroxypropylcellulose) (HPC) 93 % of control

CCOC(=O)/C(O)=C\c1ccc(OC)n[n+]1[O-]
inactive: dose: 35.0 mg/kg/injection, schedule: Q04DX002 (ip), vehicle: Klucel (hydroxypropylcellulose) (HPC) 104 % of control | dose: 70.0 mg/kg/injection, schedule: Q04DX002 (ip), vehicle: Klucel (hydroxypropylcellulose) (HPC) 104 % of control | dose: 140.0 mg/kg/injection, schedule: Q04DX002 (ip), vehicle: Klucel (hydroxypropylcellulose) (HPC) 104 % of control

O=C(Cl)C(Cl)(Cl)Cl
inactive: dose: 100.0 mg/kg/injection, schedule: Q04DX002 (sc), vehicle: olive oil, sesame oil, peanut oil 103 % of control | dose: 200.0 mg/kg/injection, schedule: Q04DX002 (sc), vehicle: olive oil, sesame oil, peanut oil 116 % of control | dose: 400.0 mg/kg/injection, schedule: Q04DX002 (sc), vehicle: olive oil, sesame oil, peanut oil 100 % of control

C=CCc1ccc(C)c(C)c1O
inactive: dose: 100.0 mg/kg/injection, schedule: Q01DX009 (sc), vehicle: olive oil, sesame oil, peanut oil 101 % of control | dose: 100.0 mg/kg/injection, schedule: Q04DX003 (sc), vehicle: olive oil, sesame oil, peanut oil 99 % of control | dose: 200.0 mg/kg/injection, schedule: Q01DX009 (sc), vehicle: olive oil, sesame oil, peanut oil 101 % of control | dose: 200.0 mg/kg/injection, schedule: Q04DX003 (sc), vehicle: olive oil, sesame oil, peanut oil 97 % of control | dose: 400.0 mg/kg/injection, schedule: Q01DX009 (sc), vehicle: olive oil, sesame oil, peanut oil 101 % of control | dose: 400.0 mg/kg/injection, schedule: Q04DX003 (sc), vehicle: olive oil, sesame oil, peanut oil 91 % of control

CCOC(=O)/C(O)=C\c1nnccc1Cl
inactive: dose: 56.25 mg/kg/injection, schedule: Q04DX002 (ip), vehicle: saline 96 % of control | dose: 112.5 mg/kg/injection, schedule: Q04DX002 (ip), vehicle: saline 104 % of control | dose: 225.0 mg/kg/injection, schedule: Q04DX002 (ip), vehicle: saline 101 % of control

COC(=O)c1cccc(OC)c1
inactive: [4] 102 % of control | [1] 98 % of control | [2] 104 % of control | [3] 93 % of control
